In US20250179083A1, “TRICYCLIC TRIAZOLO COMPOUNDS AS DGK INHIBITORS” (Incyte Corporation, priority 2023, published 2025):
pIC50: −log10 of the molar value.

What was measured:
DGKζ = target: T1, DGKζ (Homo sapiens, UniProt Q13574); test: In vitro DGKζ inhibition assay (ADP-Glo); assay type: biochemical; details: His-tagged human recombinant DGKζ 0.4 nM, 30 μM ATP, 20 μM DLG, 90 minute incubation
T1 construct: His; purchased Signal Chem D30-10H
Protocol: (§1) The DGKα and DGKζ biochemical reactions were performed using His-tagged human recombinant enzymes (Signal Chem, DGKα, #D21-10BH; DGKζ, #D30-10H)) and DLG (Dilauroyl-sn-glycerol) lipid substrate (Signal Chem, #D430-59). ADP-Glo assay was performed using ADP-Glo™ kinase Assay kit (Promega, #V9104). The reactions were carried out in assay buffer containing 40 mM Tris, pH 7.5, 0.1% CHAPS, 0.1% Prionex, 40 mM NaCl, 5 mM MgCl2, 1 mM CaCl2, and 1 mM DTT. DGKα reactions contained 0.1 nM DGKα, 50 μM ATP, and 20 μM DLG. And DGKζ reactions contained 0.4 nM DGKζ, 30 μM ATP, and 20 μM DLG.
(§2) Compounds were added with top concentration of 2 mM with 11 point, 3-fold dilution series. Enzyme solution (contains 2×DGK enzyme concentration in 1× assay buffer) was added to the plate in 2 μL/well volume, followed by 2 μL/well of substrate solution (contains 2× concentration of ATP and DLG substrate in 1× assay buffer). Plates were then centrifuged for 1 min at 1200 RPM and sealed or lidded. For 4 μL reaction volume, test compounds were therefore diluted 100× to final top concentration of 20 μM. After 90 minute incubation, reactions were quenched by addition of 2 μL/well Promega ADP-Glo Reagent, followed by centrifugation and lidding. After 60 min incubation, 2 μL/well Promega Kinase Detection Reagent was added, plates centrifuged, and incubated for 30 min. Plates were then read using Luminescence method on BMG PHERAstar FSX plate reader. Percent inhibition was calculated and IC50s were determined using 4-parameter fit in Genedata Screener. Labcyte Echo acoustic dispenser was used for compound addition, and Formulatrix Tempest liquid handler was used for all reagent dispenses.

DGKα = target: T2, DGKα (Homo sapiens, UniProt P23743); test: In vitro DGKα inhibition assay (ADP-Glo); assay type: biochemical; details: His-tagged human recombinant DGKα 0.1 nM, 50 μM ATP, 20 μM DLG, 90 minute incubation
T2 construct: His; purchased Signal Chem D21-10BH
Protocol: as §1, §2

T2 sequence (P23743 whole entry): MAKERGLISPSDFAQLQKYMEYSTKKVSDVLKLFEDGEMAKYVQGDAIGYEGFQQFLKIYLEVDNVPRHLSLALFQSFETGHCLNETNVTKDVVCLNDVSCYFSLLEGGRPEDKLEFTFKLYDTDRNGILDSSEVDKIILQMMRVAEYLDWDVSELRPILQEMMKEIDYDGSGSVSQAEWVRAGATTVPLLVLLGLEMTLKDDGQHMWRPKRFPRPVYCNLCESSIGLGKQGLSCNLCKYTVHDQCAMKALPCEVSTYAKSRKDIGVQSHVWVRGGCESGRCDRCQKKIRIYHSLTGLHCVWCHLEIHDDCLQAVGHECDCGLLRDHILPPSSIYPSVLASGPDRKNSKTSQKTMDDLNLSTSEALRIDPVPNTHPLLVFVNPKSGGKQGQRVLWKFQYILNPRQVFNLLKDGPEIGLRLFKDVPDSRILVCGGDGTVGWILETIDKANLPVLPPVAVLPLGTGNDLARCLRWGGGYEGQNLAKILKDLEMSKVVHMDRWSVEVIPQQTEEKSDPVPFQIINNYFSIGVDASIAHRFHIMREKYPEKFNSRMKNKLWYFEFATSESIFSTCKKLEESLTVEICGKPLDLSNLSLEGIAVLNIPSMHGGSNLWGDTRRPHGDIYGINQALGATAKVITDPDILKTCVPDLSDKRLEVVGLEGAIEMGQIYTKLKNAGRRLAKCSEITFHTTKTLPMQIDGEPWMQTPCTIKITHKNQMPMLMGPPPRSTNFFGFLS
T1 sequence (Q13574 whole entry): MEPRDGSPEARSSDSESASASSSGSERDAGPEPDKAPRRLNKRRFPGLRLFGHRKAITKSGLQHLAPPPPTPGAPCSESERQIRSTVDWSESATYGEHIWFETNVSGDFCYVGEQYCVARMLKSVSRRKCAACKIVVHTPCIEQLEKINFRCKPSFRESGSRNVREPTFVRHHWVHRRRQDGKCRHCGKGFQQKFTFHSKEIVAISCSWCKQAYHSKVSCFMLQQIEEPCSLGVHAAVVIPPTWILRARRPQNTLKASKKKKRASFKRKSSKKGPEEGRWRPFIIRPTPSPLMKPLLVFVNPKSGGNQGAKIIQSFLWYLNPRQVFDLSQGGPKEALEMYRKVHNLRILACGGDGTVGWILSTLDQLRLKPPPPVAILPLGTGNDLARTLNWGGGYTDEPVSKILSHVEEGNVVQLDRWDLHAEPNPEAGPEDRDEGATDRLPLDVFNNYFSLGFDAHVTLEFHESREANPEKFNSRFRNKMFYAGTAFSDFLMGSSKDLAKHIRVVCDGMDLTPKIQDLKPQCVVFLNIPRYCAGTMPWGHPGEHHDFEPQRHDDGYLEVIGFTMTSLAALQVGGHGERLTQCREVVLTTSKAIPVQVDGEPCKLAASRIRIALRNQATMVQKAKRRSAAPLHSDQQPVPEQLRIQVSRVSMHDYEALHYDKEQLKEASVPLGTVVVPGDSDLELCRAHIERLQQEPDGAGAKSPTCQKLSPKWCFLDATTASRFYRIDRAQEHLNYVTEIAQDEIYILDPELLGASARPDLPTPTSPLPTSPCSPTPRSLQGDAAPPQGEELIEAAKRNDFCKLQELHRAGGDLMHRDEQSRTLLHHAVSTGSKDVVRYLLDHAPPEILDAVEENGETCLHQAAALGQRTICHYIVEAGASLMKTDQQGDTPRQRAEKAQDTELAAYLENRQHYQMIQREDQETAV

| Compound | pIC50 (DGKζ) | pIC50 (DGKα) |
| --- | --- | --- |
| COc1ccc(C(C(C)C)N2C[C@H](C)N(c3nc4nncn4c4c3nc(C)n4C[C@@H]3CCCO3)C[C@H]2C)cc1F (stereo partly drawn) [Example 24, 4-((2S,5R)-4-(1-(3-fluoro-4-methoxyphenyl)-2-methylpropyl)-2,5-dimethylpiperazin-1-yl)-2-methyl-1-(((S)-tetrahydrofuran-2-yl)methyl)-1H-[1,2,4]triazolo[3,4-b]purine] | > 7.70 | > 7.70 |
| Cc1nc2c(N3C[C@@H](C)N(C(c4ccc(C(F)F)cc4F)C(C)C)C[C@@H]3C)nc3nncn3c2n1C[C@@H]1CCCO1 (stereo partly drawn) [Example 25, 4-((2S,5R)-4-(1-(4-(Difluoromethyl)-2-fluorophenyl)-2-methylpropyl)-2,5-dimethylpiperazin-1-yl)-2-methyl-1-(((S)-tetrahydrofuran-2-yl)methyl)-1H-[1,2,4]triazolo[3,4-b]purine] | > 7.70 | > 7.70 |
| Cc1nc2c(N3C[C@@H](C)N([C@H](c4ccc(Br)cc4F)C(C)C)C[C@@H]3C)nc3nncn3c2n1C[C@@H]1CCCO1 [Example 26, 4-((2S,5R)-4-((S)-1-(4-Bromo-2-fluorophenyl)-2-methylpropyl)-2,5-dimethylpiperazin-1-yl)-2-methyl-1-(((S)-tetrahydrofuran-2-yl)methyl)-1H-[1,2,4]triazolo[3,4-b]purine] | > 7.70 | > 7.70 |
| Cc1nc2c(N3C[C@@H](C)N([C@@H](c4ccc(Br)cc4F)C(C)C)C[C@@H]3C)nc3nncn3c2n1C[C@@H]1CCCO1 [Example 27, 4-((2S,5R)-4-((R)-1-(4-bromo-2-fluorophenyl)-2-methylpropyl)-2,5-dimethylpiperazin-1-yl)-2-methyl-1-(((S)-tetrahydrofuran-2-yl)methyl)-1H-[1,2,4]triazolo[3,4-b]purine] | > 7.70 | > 7.70 |
| Cc1nc2c(N3C[C@@H](C)N([C@H](c4ccc(Cl)cc4F)C(C)C)C[C@@H]3C)nc3nncn3c2n1C[C@@H]1CCCO1 [Example 28, 4-((2S,5R)-4-((S)-1-(4-Chloro-2-fluorophenyl)-2-methylpropyl)-2,5-dimethylpiperazin-1-yl)-2-methyl-1-(((S)-tetrahydrofuran-2-yl)methyl)-1H-[1,2,4]triazolo[3,4-b]purine] | > 7.70 | > 7.70 |
| Cc1nc2c(N3C[C@@H](C)N([C@@H](c4ccc(Cl)cc4F)C(C)C)C[C@@H]3C)nc3nncn3c2n1C[C@@H]1CCCO1 [Example 29, 4-((2S,5R)-4-((R)-1-(4-chloro-2-fluorophenyl)-2-methylpropyl)-2,5-dimethylpiperazin-1-yl)-2-methyl-1-(((S)-tetrahydrofuran-2-yl)methyl)-1H-[1,2,4]triazolo[3,4-b]purine] | > 7.70 | > 7.70 |
| CC[C@@H]1CN(c2nc3nncn3c3c2ncn3C[C@@H]2CCCO2)[C@@H](C)CN1C(c1ccc(C(F)(F)F)cc1)C1CC(F)(F)C1 (stereo partly drawn) [Example 35, 4-((2S,5R)-4-((3,3-Difluorocyclobutyl)(4-(trifluoromethyl)phenyl)methyl)-5-ethyl-2-methylpiperazin-1-yl)-1-(((S)-tetrahydrofuran-2-yl)methyl)-1H-[1,2,4]triazolo[3,4-b]purine] | > 7.70 | > 7.70 |
| CC[C@@H]1CN(c2nc3nncn3c3c2nc(C)n3C[C@@H]2CCCO2)[C@@H](C)CN1Cc1ccc(C(F)(F)F)cc1 [Example 36, 4-((2S,5R)-5-Ethyl-2-methyl-4-(4-(trifluoromethyl)benzyl)piperazin-1-yl)-2-methyl-1-(((S)-tetrahydrofuran-2-yl)methyl)-1H-[1,2,4]triazolo[3,4-b]purine] | > 7.70 | > 7.70 |
| Cc1nc2c(N3C[C@@H](C)N(Cc4ccc(C(F)(F)F)cc4F)C[C@@H]3C)nc3nncn3c2n1C[C@@H]1CCCO1 [Example 37, 4-((2S,5R)-4-(2-Fluoro-4-(trifluoromethyl)benzyl)-2,5-dimethylpiperazin-1-yl)-2-methyl-1-(((S)-tetrahydrofuran-2-yl)methyl)-1H-[1,2,4]triazolo[3,4-b]purine] | > 7.70 | > 7.70 |
| C[C@@H]1CN(c2nc3nncn3c3c2ncn3C[C@@H]2CCCO2)[C@@H](C)CN1Cc1ccc(C(F)(F)F)cc1F [Example 38, 4-((2S,5R)-4-(2-Fluoro-4-(trifluoromethyl)benzyl)-2,5-dimethylpiperazin-1-yl)-1-(((S)-tetrahydrofuran-2-yl)methyl)-1H-[1,2,4]triazolo[3,4-b]purine] | > 7.70 | > 7.70 |
| Cc1nc2c(N3C[C@@H](C)N(Cc4ccc(C(F)(F)F)cc4)C[C@@H]3C)nc3nncn3c2n1C[C@@H]1CCCO1 [Example 39, 4-((2S,5R)-2,5-Dimethyl-4-(4-(trifluoromethyl)benzyl)piperazin-1-yl)-2-methyl-1-(((S)-tetrahydrofuran-2-yl)methyl)-1H-[1,2,4]triazolo[3,4-b]purine] | > 7.70 | > 7.70 |

Other lines, results leading:

| pIC50 (DGKζ) | pIC50 (DGKα) | Compound |
| --- | --- | --- |
| > 7.70 | > 7.70 | C[C@@H]1CN(c2nc3nncn3c3c2ncn3C[C@@H]2CCCO2)[C@@H](C)CN1C(c1ccc(Cl)cn1)c1ccc(Cl)cn1 [Example 20, 4-((2S,5R)-4-(Bis(5-chloropyridin-2-yl)methyl)-2,5-dimethylpiperazin-1-yl)-1-(((S)-tetrahydrofuran-2-yl)methyl)-1H-[1,2,4]triazolo[3,4-b]purine] |
| > 7.70 | > 7.70 | C[C@@H]1CN(c2nc3nncn3c3c2ncn3C[C@@H]2CCCO2)[C@@H](C)CN1C(c1ccc(Cl)c(F)c1)C1CC(F)(F)C1 (stereo partly drawn) [Example 30, 4-((2S,5R)-4-((4-Chloro-3-fluorophenyl)(3,3-difluorocyclobutyl)methyl)-2,5-dimethylpiperazin-1-yl)-1-(((S)-tetrahydrofuran-2-yl)methyl)-1H-[1,2,4]triazolo[3,4-b]purine] |
| > 7.70 | > 7.70 | C[C@@H]1CN(c2nc3nncn3c3c2ncn3C[C@@H]2CCCO2)[C@@H](C)CN1C(c1ccc(Cl)cc1F)C1CC(F)(F)C1 (stereo partly drawn) [Example 31, 4-((2S,5R)-4-((4-Chloro-2-fluorophenyl)(3,3-difluorocyclobutyl)methyl)-2,5-dimethylpiperazin-1-yl)-1-(((S)-tetrahydrofuran-2-yl)methyl)-1H-[1,2,4]triazolo[3,4-b]purine] |
| > 7.70 | > 7.70 | C[C@@H]1CN(c2nc3nncn3c3c2ncn3C[C@@H]2CCCO2)[C@@H](C)CN1C(c1ccc(Cl)cc1)C1CC(F)(F)C1 (stereo partly drawn) [Example 32, 4-((2S,5R)-4-((4-Chlorophenyl)(3,3-difluorocyclobutyl)methyl)-2,5-dimethylpiperazin-1-yl)-1-(((S)-tetrahydrofuran-2-yl)methyl)-1H-[1,2,4]triazolo[3,4-b]purine] |
| > 7.70 | > 7.70 | C[C@@H]1CN(c2nc3nncn3c3c2ncn3C[C@@H]2CCCO2)[C@@H](C)CN1C(c1ccc(Br)cc1)C1CC(F)(F)C1 (stereo partly drawn) [Example 33, 4-((2S,5R)-4-((4-Bromophenyl)(3,3-difluorocyclobutyl)methyl)-2,5-dimethylpiperazin-1-yl)-1-(((S)-tetrahydrofuran-2-yl)methyl)-1H-[1,2,4]triazolo[3,4-b]purine] |
| > 7.70 | > 7.70 | CC[C@@H]1CN(c2nc3nncn3c3c2ncn3C[C@@H]2CCCO2)[C@@H](C)CN1C(c1ccc(Cl)cc1)C1CC(F)(F)C1 (stereo partly drawn) [Example 34, 4-((2S,5R)-4-((4-Chlorophenyl)(3,3-difluorocyclobutyl)methyl)-5-ethyl-2-methylpiperazin-1-yl)-1-(((S)-tetrahydrofuran-2-yl)methyl)-1H-[1,2,4]triazolo[3,4-b]purine] |
